In article PMC3726599, “A Metabolically-Stabilized Phosphonate Analog of Lysophosphatidic Acid Attenuates Collagen-Induced Arthritis” (PLoS ONE, 2013):

What was measured:
recombinant ATX = target: T1, recombinant ATX (Homo sapiens, UniProt Q13822); assay: Amplex Red activity assay, LPC hydrolysis by recombinant ATX (Echelon); assay type: biochemical; details: for % Inhibition at 10 μΜ: BrP-LPA 10 μΜ; for Ki: Cheng-Prusoff from IC50; for IC50: [S] 50 μΜ, Echelon ATX 2 nM, mean±std
T1 construct: purchased SinoBiological Inc (main data); R&D (additional Km values)
Protocol: BrP-LPA inhibition was also tested with the more sensitive reagent Amplex Red based on the Amplex™ Red PLD assay kit (Molecular Probes, Interchim, Montluçon, France) originally designed for the measurement of the PLD activity, [49]. All reactions were performed with purified ATX (2 nM) from Echelon at 37°C. The ability of ATX to cleave LPC was detected using a coupled assay that monitors the release of choline using Amplex Red (10 μΜ), choline oxidase (0.2 Units/ml) and horseradish peroxidise (2 Units/ml) The rate of fluorescence increase was measured in a fluorescence plate reader (Tecan Infinite 200 microplate reader from Tecan Trading AG, Switzerland) for up to 80 minutes; the fluorescence increase was linear during that time-frame for all cases. Rates were normalized to control reactions that contained all reaction components except for the test compound.
The biochemistry of lyso-PLD was assessed by following the kinetics data using a wide panel of different ATX substrates [FS-3, different LPC species (14:0, 16:0, 18:0, 18:1)], three different recombinant ATX proteins (R&D, Sino-Biological and Echelon) and three different ATX activity assays (FS-3, TOOS, Amplex Red). The ATX activity was measured at different substrate concentrations (typically from 1-1000 μM) in order to examine whether ATX follows Michaelis-Menten kinetics. The Michaelis constant (Km) was obtained by fitting the substrate dependence of V (ATX activity) to a rectangular hyperbola using the non-linear regression analysis of the statistical software package Prism 4.0 (GraphPad Software, Inc.). Km and Vmax were evaluated from the rectangular hyperbola curve with the use of GraphPad software.
For in vitro inhibition measurements, BrP-LPA was dissolved in water as a stock solution (4 mM) and appropriate dilutions were made in water. The inhibition of ATX by BrP-LPA was measured employing 2 nM recombinant ATX, 50 μΜ LPC (14:0, 16:0, 18:0) and 0.01 to 100 μmol/L of BrP-LPA (final concentrations). The in vitro inhibition of ATX by BrP-LPA was evaluated with three different assays (FS-3, Amplex Red, and TOOS). […] BrP-LPA was also tested for its ability to inhibit mouse plasma ATX activity. Diluted mouse plasma was used as the source of ATX and the analysis of inhibition was made with TOOS as the in vitro inhibition assay.
The inhibition model (competitive, noncompetitive, or mixed type inhibition) was evaluated by graphical analysis with Lineweaver–Burk double reciprocal plots (1/[velocity] versus 1/[substrate]) and Cornish-Bowden plot ([substrate]/[velocity] versus [Inhibitor]). These plots were generated by the measurement of ATX activity in the presence of different BrP-LPA concentrations (0–10 μΜ) and increased amounts of 16:0 LPC (100, 200, 400 μΜ). The inhibition constants (Ki) and IC50 values were determined using the mean values obtained from two independent experiments. The relative remaining ATX activity or LPA levels in the presence of the BrP-LPA was expressed as a percentage of the corresponding control value (ATX activity, LPA levels without inhibitor). The IC50 value was determined graphically by plotting the log concentration of BrP-LPA versus relative remaining ATX activity or LPA levels of each test sample using the sigmoid dose–response fitting method (Prism® software). The IC50 (concentration of BrP-LPA sufficient to inhibit ATX activity or diminish LPA levels by 50%) was calculated by the equation f = y0+a/(1+exp(-(x-x0)/b)) given by SigmaPlot 11.0 (Systat Software, Inc., San Jose, CA, USA).
Ki was calculated using the equation of Cheng and Prusoff: Ki = IC50/1+[S]/Km, where Ki is the binding affinity of the inhibitor, IC50 is the functional strength of the inhibitor, [S] is substrate concentration and Km is the concentration of substrate at which enzyme activity is half maximal. Whereas the IC50 value for a compound may vary between experiments depending on experimental conditions, Ki is an absolute value. […]

[1] = test system: collagen induced arthritis (CIA); assay: Collagen induced arthritis (CIA) in DBA/1 mice; assay type: in vivo, mouse
Protocol: CIA in DBA/1 mice was induced by immunization with collagen type II emulsified in complete Freund's adjuvant essentially as previously described, [43]. Mice were assessed for disease clinical signs two to three times per week. Clinical signs of arthritis were determined using the following scoring system: 0: no evidence of erythema and swelling; 1: erythema and mild swelling confined to the […] or ankle joint; 2: erythema and mild swelling extending from the ankle to the […]; 3: erythema and moderate swelling extending from the ankle to metatarsal joints; 4: erythema and severe swelling encompassing the ankle, foot and digits, or ankylosis of the limb.
Paraffin-embedded joint tissue samples were sectioned and stained with hematoxylin and eosin as previously described, [44]. Arthritic histopathology in mice was assessed (in a blinded fashion from 3 independent examiners) using a semi-quantitative scoring system as previously described for CIA in a DBA/1 (H-2^q) background. 0: no detectable pathology; 1: hyperplasia of the synovial membrane and presence of polymorphonuclear infiltrates – mild tendonitis may be present; 2: pannus and fibrous tissue formation and focal subchondrial bone erosion: 3: cartilage destruction and bone erosion in multiple foci; 4: extensive cartilage destruction and bone erosion- bone outline structure lost. Presented results refer to an average score of all four joints.
To examine the therapeutic potential of targeting the ATX/LPA axis in RA, BrP-LPA was injected intraperitoneally twice a week (following immunization boost; Fig. 4A), in groups of mice undergoing the development of collagen induced arthritis (CIA).
A. Schematic representation of immunization and drug administration schemes. DBA/1 mice subjected to CIA were treated intraperitoneally with vehicle, BrP-LPA (10 mg/kg), or dexamethasone (Dex, 3 mg/kg) twice a week. B–C. […] Data are pooled from two different experiments (n = 10). […] Joint sections were assessed histologically in a blinded manner by three independent examiners. Data are shown as mean joint values per mouse ± SD. […] Levels of CII-specific Abs were determined by ELISA in mouse sera.

LPA3 = details: Ca++ mobilization, RH7777 cells; kind of constant not given; read-out: inhibition of LPA3; cited from earlier work
[2] = test system: transformed NIH3T3 cells expressing ras and ATX; set-up: method as in PMID 18454946; details: cited from earlier work
[3] = test system: peri-tumor tissue fibroblasts, hepatocellular carcinoma cells; set-up: method as in PMID 21674557; details: cited from earlier work
[4] = 10 mg/kg i.p. twice a week, DBA/1 mice

% Inhibition at 10 μΜ (recombinant ATX; 14:0 LPC 50 μΜ): 75%
Ki (recombinant ATX; 14:0 LPC): 1000 ± 400 nM
% Inhibition at 10 μΜ (recombinant ATX; 18:0 LPC 50 μΜ): 75%
Ki (recombinant ATX; 18:0 LPC): 800 ± 200 nM
IC50 (recombinant ATX; substrate 14:0 LPC): 1600 ± 100 nM
IC50 (recombinant ATX; substrate 18:0 LPC): 1100 ± 100 nM
BrP-LPA levels in joint tissue versus liver tissue and plasma ([1]; data not shown): persist for longer in joint tissue
Structure (SMILES): CCCCCCCCCCCCCCCC(=O)OC[C@@H](O)CC(Br)P(=O)(O)O (stereo partly drawn) [BrP-LPA, 1-bromo-3(S)-hydroxy-4-(palmitoyloxy)butyl-phosphonate]
development of arthritis (number of arthritic limbs per mouse) [1, 4]: development of arthritis in significantly fewer mice
severity per arthritic limb [1, 4]: reduced severity per arthritic limb
histopathological analysis of the joints ([1]; 10 mg/kg i.p. twice a week, H&E): marked decreased inflammation and synovial hyperplasia
gross physiology / systemic side effects ([1]; 10 mg/kg i.p. twice a week, data not shown): no appreciable alternation of gross physiology
levels of anti-collagen antibodies ([1]; ELISA in mouse sera): did not interfere with the levels of anti-collagen antibodies
LPA (or LPC) levels in plasma or joint tissue at end of monitoring ([1]; three days after the last injection, data not shown): no changes in LPA (or LPC) levels were detected
IC50 (LPA3): 1200 nM
inhibition of invasiveness [2]: 40%
trans-differentiation of peri-tumor fibroblasts and HCC cell proliferation, migration, invasion [3]: block the trans-differentiation of peri-tumor tissue fibroblasts and the associated proliferation, migration and invasion of hepatocellular carcinoma cells
